Experimental data as given in patent US11613545B2, “Macrocyclic compound serving as Wee1 inhibitor and applications thereof” (WUXI BIOCITY BIOPHARMACEUTICS CO., LTD., priority 2017, dated 2023).

Each compound was assayed against T1, Wee1 (Homo sapiens, UniProt P30291) (assay: In vitro enzymatic inhibitory activity, Wee1 kinase (Eurofins, [γ-33P]-ATP filter assay)). Settings: 10 μM [γ-33P]-ATP, 40 min at room temperature.
T1 construct: purchased Eurofins
Assay type: biochemical
Procedure: The experimental tests were conducted at Eurofins, and the results were provided by the company.
After adding the mixed solution of Mg^2+ and ATP, the reaction started and the reaction solution was incubated at room temperature for 40 min. 3% phosphate buffer was added to stop the reaction. 10 μL of the reaction solution was filtered on a continuous filter P30, washed three times with 75 mM phosphate buffer, once with methanol, and 5 minutes each time. After drying, the value was read by scintillation counting method.

T1 sequence (P30291 whole entry): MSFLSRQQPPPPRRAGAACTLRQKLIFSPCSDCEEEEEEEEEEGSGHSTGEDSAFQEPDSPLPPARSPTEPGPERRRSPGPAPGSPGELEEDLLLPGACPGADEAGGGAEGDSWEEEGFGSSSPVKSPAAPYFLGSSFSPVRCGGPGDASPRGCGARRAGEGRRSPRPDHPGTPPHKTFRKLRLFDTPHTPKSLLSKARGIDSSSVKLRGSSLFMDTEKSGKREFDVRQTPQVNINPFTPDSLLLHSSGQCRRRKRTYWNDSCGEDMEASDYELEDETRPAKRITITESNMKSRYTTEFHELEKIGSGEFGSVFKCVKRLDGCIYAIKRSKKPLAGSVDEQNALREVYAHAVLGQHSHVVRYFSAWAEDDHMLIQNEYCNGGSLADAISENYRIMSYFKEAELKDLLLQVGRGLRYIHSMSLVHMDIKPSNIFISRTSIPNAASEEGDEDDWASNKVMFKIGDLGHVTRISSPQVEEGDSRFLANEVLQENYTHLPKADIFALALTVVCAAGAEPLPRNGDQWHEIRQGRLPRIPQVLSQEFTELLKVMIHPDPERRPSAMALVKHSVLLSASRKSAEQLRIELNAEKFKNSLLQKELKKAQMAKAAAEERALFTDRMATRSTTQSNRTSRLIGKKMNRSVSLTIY

| Compound | IC50 [nM] |
| --- | --- |
| CC1(O)CC/C=C\Cn2c(=O)c3cnc(Nc4ccc(N5CCNCC5)cc4)nc3n2-c2cccc1n2 (centres unmarked) [Compound 6] | 46 |
| COc1cccc(Nc2ncc3c(=O)n4n(c3n2)-c2cccc(n2)[C@](C)(O)CC/C=C\C4)c1 [Compound 16] | 60 |
| CN(C)CCOc1ccc(Nc2ncc3c(=O)n4n(c3n2)-c2cccc(n2)[C@@](C)(O)CC/C=C\C4)cc1 [Compound 19] | 72 |
| CN1CCC2(CC1)CCN(c1ccc(Nc3ncc4c(=O)n5n(c4n3)-c3cccc(n3)C(C)(O)CC/C=C\C5)cc1)CC2 (centres unmarked) [Compound 7] | 54 |
| CN1CCN(c2ccc(Nc3ncc4c(=O)n5n(c4n3)-c3cccc(n3)[C@](C)(O)CC/C=C\C5)cc2CO)CC1 [Compound 22] | 16 |
| C[C@]1(O)CC/C=C\Cn2c(=O)c3cnc(Nc4ccccc4)nc3n2-c2cccc1n2 [Compound 13] | 265 |
| CC1(O)CC/C=C\Cn2c(=O)c3cnc(Nc4ccc(N5CCCNCC5)cc4)nc3n2-c2cccc1n2 (centres unmarked) [Compound 11] | 102 |
| CN1CCCN(c2ccc(Nc3ncc4c(=O)n5n(c4n3)-c3cccc(n3)C(C)(O)CC/C=C\C5)cc2)CC1 (centres unmarked) [Compound 10] | 49 |
| COCc1cc(Nc2ncc3c(=O)n4n(c3n2)-c2cccc(n2)[C@](C)(O)CC/C=C\C4)ccc1N1CCN(C)CC1 [Compound 23] | 29 |
| CN1CCC(c2ccc(Nc3ncc4c(=O)n5n(c4n3)-c3cccc(n3)[C@](C)(O)CC/C=C\C5)cc2)CC1 [Compound 20] | 173 |
| COc1cccc(Nc2ncc3c(=O)n4n(c3n2)-c2cccc(n2)[C@@](C)(O)CC/C=C\C4)c1 [Compound 17] | 366 |
| C[C@@]1(O)CC/C=C\Cn2c(=O)c3cnc(Nc4ccccc4)nc3n2-c2cccc1n2 [Compound 12] | 59 |
| CC1(O)CC/C=C\Cn2c(=O)c3cnc(Nc4ccc(N5CCC(F)(F)CC5)cc4)nc3n2-c2cccc1n2 (centres unmarked) [Compound 3] | 42 |
| CN(C)CCOc1ccc(Nc2ncc3c(=O)n4n(c3n2)-c2cccc(n2)[C@](C)(O)CC/C=C\C4)cc1 [Compound 18] | 29 |
| CN(C)C1CCN(c2ccc(Nc3ncc4c(=O)n5n(c4n3)-c3cccc(n3)C(C)(O)CC/C=C\C5)cc2)CC1 (centres unmarked) [Compound 9] | 41 |
| CN1CCC(c2ccc(Nc3ncc4c(=O)n5n(c4n3)-c3cccc(n3)[C@@](C)(O)CC/C=C\C5)cc2)CC1 [Compound 21] | 280 |

Results, then the compound that gave them:

| IC50 [nM] | Compound |
| --- | --- |
| 16 | C[C@@]1(O)CC/C=C\Cn2c(=O)c3cnc(Nc4ccc(N5CCC(F)(F)CC5)cc4)nc3n2-c2cccc1n2 [Compound 41] |
| 276 | CN1CCN(c2cccc(Nc3ncc4c(=O)n5n(c4n3)-c3cccc(n3)[C@@](C)(O)CC/C=C\C5)c2)CC1 [Compound 35] |
| 67 | C[C@@]1(O)CC/C=C\Cn2c(=O)c3cnc(Nc4ccc(F)cc4)nc3n2-c2cccc1n2 [Compound 30] |
| 37 | CN1CCc2ccc(Nc3ncc4c(=O)n5n(c4n3)-c3cccc(n3)[C@@](C)(O)CC/C=C\C5)cc2C1 [Compound 27] |
| 30 | CN1CCc2ccc(Nc3ncc4c(=O)n5n(c4n3)-c3cccc(n3)[C@](C)(O)CC/C=C\C5)cc2C1 [Compound 26] |
| 57 | CN1CC2CN(c3ccc(Nc4ncc5c(=O)n6n(c5n4)-c4cccc(n4)[C@](C)(O)CC/C=C\C6)cc3)CC2C1 (some centres unmarked) [Compound 24] |
| 79 | C[C@@]1(O)CC/C=C\Cn2c(=O)c3cnc(Nc4cccc(F)c4)nc3n2-c2cccc1n2 [Compound 28] |
| 54 | C[C@@]1(O)CC/C=C\Cn2c(=O)c3cnc(Nc4ccc(Cl)cc4)nc3n2-c2cccc1n2 [Compound 39] |
| 116 | CN1CCN(c2cccc(Nc3ncc4c(=O)n5n(c4n3)-c3cccc(n3)[C@](C)(O)CC/C=C\C5)c2)CC1 [Compound 34] |
| 221 | CN(C)CCOc1cccc(Nc2ncc3c(=O)n4n(c3n2)-c2cccc(n2)[C@@](C)(O)CC/C=C\C4)c1 [Compound 42] |
| 31 | CN1CCCN(c2ccc(Nc3ncc4c(=O)n5n(c4n3)-c3cccc(n3)[C@](C)(O)CC/C=C\C5)cc2)CC1 [Compound 37] |
| 35 | C[C@@]1(O)CC/C=C\Cn2c(=O)c3cnc(Nc4ccc(OC5CC5)cc4)nc3n2-c2cccc1n2 [Compound 40] |
| 444 | C[C@]1(O)CC/C=C\Cn2c(=O)c3cnc(Nc4cccc(F)c4)nc3n2-c2cccc1n2 [Compound 29] |
| 323 | C[C@]1(O)CC/C=C\Cn2c(=O)c3cnc(Nc4ccc(F)cc4)nc3n2-c2cccc1n2 [Compound 31] |
| 35 | CN(C)CCOc1cccc(Nc2ncc3c(=O)n4n(c3n2)-c2cccc(n2)[C@](C)(O)CC/C=C\C4)c1 [Compound 36] |
| 37 | C[C@@]1(O)CC/C=C\Cn2c(=O)c3cnc(Nc4ccc(N5CCOCC5)cc4)nc3n2-c2cccc1n2 [Compound 32] |
| 78 | CN1CC2CN(c3ccc(Nc4ncc5c(=O)n6n(c5n4)-c4cccc(n4)[C@@](C)(O)CC/C=C\C6)cc3)CC2C1 (some centres unmarked) [Compound 25] |
| 48 | CN(C)C1CCN(c2ccc(Nc3ncc4c(=O)n5n(c4n3)-c3cccc(n3)[C@](C)(O)CC/C=C\C5)cc2)CC1 [Compound 38] |
| 151 | C[C@]1(O)CC/C=C\Cn2c(=O)c3cnc(Nc4ccc(N5CCOCC5)cc4)nc3n2-c2cccc1n2 [Compound 33] |
